# Source: patent US9302999B2, “Substituted triazoles as herbicides” (E. I. DU PONT DE NEMOURS AND COMPANY, priority 2012, dated 2016)
# Columns and labels:
# Format in all cases: in vivo
# [1] = system: foxtail, green (green foxtail, Setaria viridis); assay: Test C pre-/postemergence: foxtail, green
# Source text: (§1) Seeds of plant species selected from blackgrass (Alopecurus myosuroides), bromegrass, downy (downy bromegrass, Bromus tectorum), foxtail, green (green foxtail, Setaria viridis), ryegrass, Italian (Italian ryegrass, Lolium multiflorum), winter wheat (Triticum aestivum), wild oat (Avena fatua), galium (catchweed bedstraw, Galium aparine), bermudagrass (Cynodon dactylon), surinam grass (Brachiaria decumbens), cocklebur (common cocklebur, Xanthium strumarium), corn (Zea mays), large crabgrass (Digitaria sanguinalis), woolly cupgrass (Eriochloa villosa), foxtail, giant (giant foxtail, Setaria faberii), goosegrass (Eleusine indica), johnsongrass (Sorghum halepense), kochia (Kochia scoparia), lambsquarters (Chenopodium album), morningglory (Ipomoea coccinea), nightshade (eastern black nightshade, Solanum ptycanthum), nutsedge, yellow (yellow nutsedge, Cyperus esculentus), pigweed (Amaranthus retroflexus), ragweed (common ragweed, Ambrosia elation), soybean (Glycine max), common (oilseed) sunflower (Helianthus annuus), Russian thistle (Salsola kali) and velvetleaf (Abutilon theophrasti) were planted into a blend of loam soil and sand and treated preemergence with test chemicals formulated in a non-phytotoxic solvent mixture which included a surfactant.
# (§2) At the same time, plants selected from these crop and weed species and also barley (winter barley, Hordeum vulgare), canarygrass (Phalaris minor), chickweed (common chickweed, Stellaria media) windgrass (Apera spica-venti) and deadnettle (henbit deadnettle, Lamium amplexicaule) were planted in pots containing Redi-Earth® planting medium (Scotts Company, 14111 Scottslawn Road, Marysville, Ohio 43041) comprising spaghnum peat moss, vermiculite, wetting agent and starter nutrients and treated with postemergence applications of test chemicals formulated in the same manner. Plants ranged in height from 2 to 18 cm (1- to 4-leaf stage) for postemergence treatments.
# (§3) Treated plants and controls were maintained in a greenhouse for 13 to 15 days, after which time all species were compared to controls and visually evaluated. Plant response ratings, summarized in Table C, are based on a scale of 0 to 100 where 0 is no effect and 100 is complete control. A dash (-) response means no test result.
# [2] = system: blackgrass (Alopecurus myosuroides); assay: Test D pre-/postemergence: blackgrass
# Source text: (§4) Seeds of plant species selected from bluegrass (annual bluegrass, Poa annua), blackgrass (Alopecurus myosuroides), canarygrass (Phalaris minor), chickweed (common chickweed, Stellaria media), galium (catchweed bedstraw, Galium aparine), bromegrass, downy (downy bromegrass, Bromus tectorum), field poppy (Papaver rhoeas), field violet (Viola arvensis), foxtail, green (green foxtail, Setaria viridis), deadnettle (henbit deadnettle, Lamium amplexicaule), ryegrass, Italian (Italian ryegrass, Lolium multiflorum), kochia (Kochia scoparia), lambsquarters (Chenopodium album), oilseed rape (Brassica napus), pigweed (Amaranthus retroflexus), Russian thistle (Salsola iberica), chamomile (scentless chamomile, Matricaria inodora), speedwell (bird's-eye speedwell, Veronica persica), barley, spring (spring barley, Hordeum vulgare), wheat, spring (spring wheat, Triticum aestivum), buckwheat, wild (wild buckwheat, Polygonum convolvulus), mustard, wild (wild mustard, Sinapis arvensis), oat, wild (wild oat, Avena fatua), radish, wild (wild radish, Raphanus raphanistrum), windgrass (Apera spica-venti), barley, winter (winter barley, Hordeum vulgare), and wheat, winter (winter wheat, Triticum aestivum) were planted into a silt loam soil and treated preemergence with test chemicals formulated in a non-phytotoxic solvent mixture which included a surfactant. At the same time, these same crop and weed species were planted in pots containing the planting medium comprising spaghnum peat moss, vermiculite, wetting agent and starter nutrients and treated with postemergence applications of the test chemicals formulated in the same manner. Plants ranged in height from 2 to 18 cm (1- to 4-leaf stage).
# as §3, with “controlled growth environment” for “greenhouse”, “14” for “13”, “21 days” for “15 days,”, “D,” for “C,”
# [3] = system: bromegrass, downy (downy bromegrass, Bromus tectorum); assay: Test D pre-/postemergence: bromegrass, downy
# Source text: as §4
# as §3, with “controlled growth environment” for “greenhouse”, “14” for “13”, “21 days” for “15 days,”, “D,” for “C,”
# [4] = system: barley, spring (spring barley, Hordeum vulgare); assay: Test D pre-/postemergence: barley, spring
# Source text: as §4
# as §3, with “controlled growth environment” for “greenhouse”, “14” for “13”, “21 days” for “15 days,”, “D,” for “C,”
# [5] = system: oat, wild (wild oat, Avena fatua); assay: Test D pre-/postemergence: oat, wild
# Source text: as §4
# as §3, with “controlled growth environment” for “greenhouse”, “14” for “13”, “21 days” for “15 days,”, “D,” for “C,”
# [6] = system: windgrass (Apera spica-venti); assay: Test D pre-/postemergence: windgrass
# Source text: as §4
# as §3, with “controlled growth environment” for “greenhouse”, “14” for “13”, “21 days” for “15 days,”, “D,” for “C,”
# [7] = system: nightshade (eastern black nightshade, Solanum ptycanthum); assay: Test C pre-/postemergence: nightshade; conditions: Preemergence
# Source text: as §1, §2, §3
# [8] = system: barnyardgrass (Echinochloa crus-galli); assay: Test B flooded paddy: barnyardgrass; conditions: Flood; 250 g ai/ha; applied to paddy water at 2-leaf stage; visually evaluated after 13 to 15 days
# Outline: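 Plants were grown to the 2-leaf stage, then pots were flooded to 3 cm above the soil and compounds were applied directly into the paddy water. Water depth was held for the whole test; after 13 to 15 days in a greenhouse, injury was visually rated against untreated controls (0 = no effect, 100 = complete control).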
# [9] = Postemergence, 31 g ai/ha, scale 0 to 100 (0 no effect, 100 complete control)
# [10] = Postemergence, 62 g ai/ha, scale 0 to 100 (0 no effect, 100 complete control)
# [11] = Postemergence, 125 g ai/ha, scale 0 to 100, 0 no effect, 100 complete control
# [12] = Preemergence, 31 g ai/ha, scale of 0 to 100, 0 is no effect, 100 is complete control
# [13] = Preemergence, 62 g ai/ha, scale of 0 to 100, 0 is no effect, 100 is complete control
# [14] = Preemergence, 125 g ai/ha, scale 0 to 100, 0 no effect, 100 complete control
# [15] = Preemergence, 250 g ai/ha, scale 0 to 100, 0 no effect, 100 complete control
# [16] = Postemergence, 250 g ai/ha, scale 0 to 100 (0 no effect, 100 complete control)
# [17] = Postemergence, 16 g ai/ha, scale 0 to 100
# [18] = Preemergence, 16 g ai/ha, scale 0 to 100 (0 no effect, 100 complete control)
# [19] = Preemergence, 31 g ai/ha, scale 0 to 100 (0 no effect, 100 complete control)
# [20] = Preemergence, 62 g ai/ha, scale 0 to 100
# [21] = Preemergence, 125 g ai/ha, scale 0 to 100
# [22] = Preemergence, 250 g ai/ha, scale 0 to 100
# [23] = Postemergence, 250 g ai/ha, scale 0 to 100
structure (smiles),measurement,setting,value
"Cc1nn(-c2ccc(F)cc2)nc1Cc1ccnc(C(F)(F)F)c1 [Compound 16, 4-[[2-(4-fluorophenyl)-5-methyl-2H-1,2,3-triazol-4-yl]methyl]-2-(trifluoromethyl)pyridine]","Plant response rating, Foxtail, Green",[1]; [9],30
same,"Plant response rating, Foxtail, Green",[1]; [10],98
same,"Plant response rating, Foxtail, Green",[1]; [11],98
same,"Plant response rating, Foxtail, Green",[1]; [12],100
same,"Plant response rating, Foxtail, Green",[1]; [13],100
same,"Plant response rating, Foxtail, Green",[1]; [14],100
same,"Plant response rating, Foxtail, Green",[1]; [15],100
same,Plant response rating: Blackgrass,[2]; [9],10
same,Plant response rating: Blackgrass,[2]; [10],20
same,Plant response rating: Blackgrass,[2]; [11],25
same,Plant response rating: Blackgrass,[2]; [16],40
same,"Plant response rating, Blackgrass",[2]; [17],5
same,"Plant response rating, Blackgrass",[2]; [18],0
same,"Plant response rating, Blackgrass",[2]; [19],0
same,"Plant response rating, Blackgrass",[2]; [20],40
same,"Plant response rating, Blackgrass",[2]; [21],70
same,"Plant response rating, Blackgrass",[2]; [22],100
same,"Plant response rating: Bromegrass, Downy",[3]; [9],10
same,"Plant response rating: Bromegrass, Downy",[3]; [10],20
same,"Plant response rating: Bromegrass, Downy",[3]; [11],40
same,"Plant response rating: Bromegrass, Downy",[3]; [16],50
same,"Plant response rating, Bromegrass, Downy",[3]; [17],0
same,"Plant response rating, Bromegrass, Downy",[3]; [18],0
same,"Plant response rating, Bromegrass, Downy",[3]; [19],20
same,"Plant response rating, Bromegrass, Downy",[3]; [20],25
same,"Plant response rating, Bromegrass, Downy",[3]; [21],25
same,"Plant response rating, Bromegrass, Downy",[3]; [22],40
same,"Plant response rating: Barley, Spring",[4]; [9],15
same,"Plant response rating: Barley, Spring",[4]; [10],15
same,"Plant response rating: Barley, Spring",[4]; [11],20
same,"Plant response rating: Barley, Spring",[4]; [16],35
same,"Plant response rating, Barley, Spring",[4]; [17],5
same,"Plant response rating, Barley, Spring",[4]; [18],0
same,"Plant response rating, Barley, Spring",[4]; [19],0
same,"Plant response rating, Barley, Spring",[4]; [20],5
same,"Plant response rating, Barley, Spring",[4]; [21],5
same,"Plant response rating, Barley, Spring",[4]; [22],5
same,"Plant response rating: Oat, Wild",[5]; [9],10
same,"Plant response rating: Oat, Wild",[5]; [10],30
same,"Plant response rating: Oat, Wild",[5]; [11],45
same,"Plant response rating: Oat, Wild",[5]; [16],50
same,"Plant response rating, Oat, Wild",[5]; [17],0
same,"Plant response rating, Oat, Wild",[5]; [18],0
same,"Plant response rating, Oat, Wild",[5]; [19],10
same,"Plant response rating, Oat, Wild",[5]; [20],10
same,"Plant response rating, Oat, Wild",[5]; [21],100
same,"Plant response rating, Oat, Wild",[5]; [22],100
same,Plant response rating: Windgrass,[6]; [9],10
same,Plant response rating: Windgrass,[6]; [10],20
same,Plant response rating: Windgrass,[6]; [11],25
same,Plant response rating: Windgrass,[6]; [16],35
same,"Plant response rating, Windgrass",[6]; [17],0
same,"Plant response rating, Windgrass",[6]; [18],20
same,"Plant response rating, Windgrass",[6]; [19],20
same,"Plant response rating, Windgrass",[6]; [20],90
same,"Plant response rating, Windgrass",[6]; [21],100
same,"Plant response rating, Windgrass",[6]; [22],100
"Cc1nn(-c2ccc(C(F)(F)F)cc2)nc1Cc1ccnc(C(F)(F)F)c1 [Compound 47, 4-[[5-methyl-2-[4-(trifluoromethyl)phenyl]-2H-1,2,3-triazol-4-yl]methyl]-2-(trifluoromethyl)pyridine]","Plant response rating, Foxtail, Green",[1]; [9],20
same,"Plant response rating, Foxtail, Green",[1]; [10],98
same,"Plant response rating, Foxtail, Green",[1]; [11],100
same,"Plant response rating, Foxtail, Green",[1]; [23],100
same,"Plant response rating, Foxtail, Green",[1]; [12],100
same,"Plant response rating, Foxtail, Green",[1]; [13],100
same,"Plant response rating, Foxtail, Green",[1]; [14],100
same,"Plant response rating, Foxtail, Green",[1]; [15],100
same,"Plant response rating, Nightshade","[7]; 31 g ai/ha, scale of 0 to 100, 0 is no effect, 100 is complete control",45
same,"Plant response rating, Nightshade","[7]; 62 g ai/ha, scale of 0 to 100, 0 is no effect, 100 is complete control",98
same,"Plant response rating, Nightshade","[7]; 125 g ai/ha, scale 0 to 100, 0 no effect, 100 complete control",98
same,"Plant response rating, Nightshade","[7]; 250 g ai/ha, scale 0 to 100, 0 no effect, 100 complete control",98
Cc1nn(-c2ccc(C(F)(F)F)cc2)nc1Cc1cccc(C(F)(F)F)c1 [Compound 124],"Plant response rating, Foxtail, Green","[1]; Postemergence, 16 g ai/ha, scale 0 to 100, 0 no effect, 100 complete control",65
same,"Plant response rating, Foxtail, Green",[1]; [9],70
same,"Plant response rating, Foxtail, Green",[1]; [10],90
same,"Plant response rating, Foxtail, Green",[1]; [11],95
Cc1nn(-c2ccnc(C(F)(F)F)c2)nc1Cc1ccnc(C(F)(F)F)c1 [Compound 137],"Plant response rating, Barnyardgrass (0 to 100 scale, 0 is no effect, 100 is complete control)",[8],45
same,"Plant response rating, Foxtail, Green",[1]; [9],80
same,"Plant response rating, Foxtail, Green",[1]; [10],85
same,"Plant response rating, Foxtail, Green",[1]; [11],95
same,"Plant response rating, Foxtail, Green",[1]; [23],95
same,Plant response rating: Blackgrass,[2]; [9],30
same,Plant response rating: Blackgrass,[2]; [10],50
same,Plant response rating: Blackgrass,[2]; [11],70
same,Plant response rating: Blackgrass,[2]; [16],80
same,"Plant response rating, Blackgrass",[2]; [17],10
same,"Plant response rating: Bromegrass, Downy",[3]; [9],15
same,"Plant response rating: Bromegrass, Downy",[3]; [10],20
same,"Plant response rating: Bromegrass, Downy",[3]; [11],30
same,"Plant response rating: Bromegrass, Downy",[3]; [16],40
same,"Plant response rating, Bromegrass, Downy",[3]; [17],5
same,"Plant response rating: Barley, Spring",[4]; [9],15
same,"Plant response rating: Barley, Spring",[4]; [10],25
same,"Plant response rating: Barley, Spring",[4]; [11],30
same,"Plant response rating: Barley, Spring",[4]; [16],40
same,"Plant response rating, Barley, Spring",[4]; [17],10
same,"Plant response rating: Oat, Wild",[5]; [9],10
same,"Plant response rating: Oat, Wild",[5]; [10],20
same,"Plant response rating: Oat, Wild",[5]; [11],35
same,"Plant response rating: Oat, Wild",[5]; [16],50
same,"Plant response rating, Oat, Wild",[5]; [17],0
same,Plant response rating: Windgrass,[6]; [10],40
same,Plant response rating: Windgrass,[6]; [11],50
same,Plant response rating: Windgrass,[6]; [16],80
same,"Plant response rating, Windgrass",[6]; [17],10
same,"Plant response rating, Windgrass","[6]; Postemergence, 31 g ai/ha, scale 0 to 100",20
